The results in this text go back to patent publication US9643970B2, “Substituted imidazo [1,5-a]pyrazines as PDE9 inhibitors” (H Lundbeck A/S, priority 2012, dated 2017).

pIC50: −log10 of the molar value.

Chain of PDE9 (O76083 whole entry): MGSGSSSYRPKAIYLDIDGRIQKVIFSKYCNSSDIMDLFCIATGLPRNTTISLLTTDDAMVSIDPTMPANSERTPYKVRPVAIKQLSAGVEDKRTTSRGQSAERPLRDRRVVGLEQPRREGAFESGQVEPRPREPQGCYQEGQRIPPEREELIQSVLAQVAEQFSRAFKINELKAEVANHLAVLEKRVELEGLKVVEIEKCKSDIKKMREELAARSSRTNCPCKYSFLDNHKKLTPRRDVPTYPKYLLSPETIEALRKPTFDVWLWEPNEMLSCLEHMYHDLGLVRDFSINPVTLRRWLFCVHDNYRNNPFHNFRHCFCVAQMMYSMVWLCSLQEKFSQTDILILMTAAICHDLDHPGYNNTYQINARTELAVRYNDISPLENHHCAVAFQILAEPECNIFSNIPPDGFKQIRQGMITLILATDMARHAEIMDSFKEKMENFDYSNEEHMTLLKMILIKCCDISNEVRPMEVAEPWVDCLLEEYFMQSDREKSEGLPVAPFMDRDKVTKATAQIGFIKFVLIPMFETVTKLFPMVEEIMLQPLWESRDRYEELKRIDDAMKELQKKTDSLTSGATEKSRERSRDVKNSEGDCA

The first assay has as its target PDE9 (Homo sapiens, UniProt O76083). In words: PDE9 inhibition assay. Format: biochemical.
Conditions: not given
The protocol: Reactions are initiated by addition of the cyclic nucleotide substrate, and reactions are allowed to proceed for one hr at room temperature before being terminated through mixing with 15 uL 8 mg/mL yttrium silicate SPA beads (Amersham). […] IC50 values were calculated by non linear regression using XLfit (IDBS).
As usually defined, the pIC50 is −log10 of the IC50, conventionally taken in molar units. Consider `CCc1ccc(C2CN(C(C)c3cn4c(-c5ccccc5)ncc4c(=O)[nH]3)C2)cc1` (centres unmarked) [Compound 30, 6-[1-[3-(4-ethylphenyl)azetidin-1-yl]ethyl]-3-phenyl-7h-imidazo[1,5-a]pyrazin-8-one], for which the pIC50 was 7.80.

Regarding `O=c1[nH]c(CN2CC(c3ccc(F)cc3)C2)cn2c(-c3ccccc3)ncc12` [Compound 19, 6-[[3-(4-fluorophenyl)azetidin-1-yl]methyl]-3-phenyl-7h-imidazo[1,5-a]pyrazin-8-one], the pIC50 is 7.16.

As for `O=c1[nH]c(CN2CC(c3ccccn3)C2)cn2c(-c3ccc(F)cc3)ncc12` [Compound 61, 3-(4-fluorophenyl)-6-[[3-(2-pyridyl)azetidin-1-yl]methyl]-7h-imidazo[1,5-a]pyrazin-8-one], the pIC50 was 7.10.

As for `CC(c1cn2c(-c3ccccc3)ncc2c(=O)[nH]1)N1CC(Oc2ccccc2F)C1` (centres unmarked) [Compound 32, 6-[1-[3-(2-fluorophenoxy)azetidin-1-yl]ethyl]-3-phenyl-7h-imidazo[1,5-a]pyrazin-8-one], the pIC50 is 7.14.

`COC1CN(C(c2ccccc2)c2cn3c(-c4ccccc4)ncc3c(=O)[nH]2)C1` (centres unmarked) [Compound 22, 6-[(3-methoxyazetidin-1-yl)-phenyl-methyl]-3-phenyl-7h-imidazo[1,5-a]pyrazin-8-one] had a pIC50 of 7.43.

In the case of `O=c1[nH]c(CN2CC(Oc3cccc(C(F)(F)F)c3)C2)cn2c(-c3ccc(F)cc3)ncc12` [Compound 95, 3-(4-fluorophenyl)-6-[[3-[3-(trifluoromethyl)phenoxy]azetidin-1-yl]methyl]-7h-imidazo[1,5-a]pyrazin-8-one], the pIC50 was 7.01.

Turning to `O=c1[nH]c(CN2CC(Oc3ccccc3F)C2)cn2c(-c3ccccc3)ncc12` [Compound 33, 6-[[3-(2-fluorophenoxy)azetidin-1-yl]methyl]-3-phenyl-7h-imidazo[1,5-a]pyrazin-8-one], the negative logarithm of the IC50 (pIC50) is 7.74.

The molecule `CC(C)COC1CN(Cc2cn3c(C4CCCC4)ncc3c(=O)[nH]2)C1` [Compound 58, 3-cyclopentyl-6-[(3-isobutoxyazetidin-1-yl)methyl]-7h-imidazo[1,5-a]pyrazin-8-one] showed a pIC50 of 8.40.

The molecule `O=c1[nH]c(CN2CC(c3ccccc3)C2)cn2c(C3CCOCC3)ncc12` [Compound 68, 6-[(3-phenylazetidin-1-yl)methyl]-3-tetrahydropyran-4-yl-7h-imidazo[1,5-a]pyrazin-8-one] showed a pIC50 of 8.10.

Staying with this assay, now noted: SPA assay, 10 nM 3H-cAMP, 1 hour incubation; read-out: IC50.
`O=c1[nH]c(CN2CC(Oc3ccncc3)C2)cn2c(C3CCOCC3)ncc12` [Compound 82, 6-[[3-(4-pyridyloxy)azetidin-1-yl]methyl]-3-tetrahydropyran-4-yl-7h-imidazo[1,5-a]pyrazin-8-one]: the pIC50 is 7.85.

For `O=c1[nH]c(CN2CC(Oc3cnc4ccccc4n3)C2)cn2c(C3CCOCC3)ncc12` [Compound 72, 6-[(3-quinoxalin-2-yloxyazetidin-1-yl)methyl]-3-tetrahydropyran-4-yl-7h-imidazo[1,5-a]pyrazin-8-one], the pIC50 is 6.86.

As to `CC(c1cn2c(-c3ccccc3)ncc2c(=O)[nH]1)N1CC(Oc2ccc(F)cc2)C1` (centres unmarked) [Compound 26, 6-[1-[3-(4-fluorophenoxy)azetidin-1-yl]ethyl]-3-phenyl-7h-imidazo[1,5-a]pyrazin-8-one], the pIC50 was 7.72.

In the case of `CC(c1cn2c(-c3ccc(F)cc3)ncc2c(=O)[nH]1)N1CC(c2ccc(F)cc2)C1` (centres unmarked) [Compound 124, 3-(4-fluorophenyl)-6-[1-[3-(4-fluorophenyl)azetidin-1-yl]ethyl]-7h-imidazo[1,5-a]pyrazin-8-one], the negative logarithm of the IC50 (pIC50) was 7.14.

On to `O=c1[nH]c(CN2CC(Oc3ccc(Cl)cc3)C2)cn2c(-c3ccc(F)cc3)ncc12` [Compound 118, 6-[[3-(4-chlorophenoxy)azetidin-1-yl]methyl]-3-(4-fluorophenyl)-7h-imidazo[1,5-a]pyrazin-8-one], for which the pIC50 was 7.38.

In the case of `O=c1[nH]c(CN2CC(Oc3cccc(F)n3)C2)cn2c(C3CCOCC3)ncc12` [Compound 65, 6-[[3-[(6-fluoro-2-pyridyl)oxy]azetidin-1-yl]methyl]-3-tetrahydropyran-4-yl-7h-imidazo[1,5-a]pyrazin-8-one], the pIC50 was 7.04.

For `CC1CN(Cc2ccc(F)cc2)CC1c1cn2c(-c3ccc(Cl)cc3)ncc2c(=O)[nH]1` (centres unmarked) [Compound 110, 3-(4-chlorophenyl)-6-[1-[(4-fluorophenyl)methyl]-4-methyl-pyrrolidin-3-yl]-7h-imidazo[1,5-a]pyrazin-8-one], the pIC50 was 7.44.

`O=c1[nH]c(CN2CC(Oc3ccc(F)cc3)C2)cn2c(-c3ccc(F)cc3)ncc12` [Compound 63, 6-[[3-(4-fluorophenoxy)azetidin-1-yl]methyl]-3-(4-fluorophenyl)-7h-imidazo[1,5-a]pyrazin-8-one]: the pIC50 was 7.89.

With `O=c1[nH]c(CN2CCC(Oc3ccccc3)C2)cn2c(-c3ccc(F)cc3)ncc12` (centres unmarked) [Compound 85, 3-(4-fluorophenyl)-6-[(3-phenoxypyrrolidin-1-yl)methyl]-7h-imidazo[1,5-a]pyrazin-8-one], the pIC50 was 6.85.

Take `O=c1[nH]c(CN2CC(OCc3ccc(Cl)cc3)C2)cn2c(-c3ccc(F)cc3)ncc12` [Compound 108, 6-[[3-[(4-chlorophenyl)methoxy]azetidin-1-yl]methyl]-3-(4-fluorophenyl)-7h-imidazo[1,5-a]pyrazin-8-one]: the pIC50 is 7.47.

Take `CC1CN(Cc2ccccn2)CC1c1cn2c(-c3ccc(F)cc3)ncc2c(=O)[nH]1` (centres unmarked) [Compound 114, 3-(4-fluorophenyl)-6-[4-methyl-1-(2-pyridylmethyl)pyrrolidin-3-yl]-7h-imidazo[1,5-a]pyrazin-8-one]: the pIC50 was 8.15.

For the molecule `CC(c1cn2c(-c3ccccc3)ncc2c(=O)[nH]1)N1CC(Oc2cccc(F)n2)C1` (centres unmarked) [Compound 27, 6-[1-[3-[(6-fluoro-2-pyridyl)oxy]azetidin-1-yl]ethyl]-3-phenyl-7h-imidazo[1,5-a]pyrazin-8-one], the pIC50 was 7.42.

For the molecule `CC1CN(Cc2ccc3nccnc3c2)CC1c1cn2c(C3CCOCC3)ncc2c(=O)[nH]1` (centres unmarked) [Compound 97, 6-[4-methyl-1-(quinoxalin-6-ylmethyl)pyrrolidin-3-yl]-3-tetrahydropyran-4-yl-7h-imidazo[1,5-a]pyrazin-8-one], the pIC50 was 8.40.

Regarding `COC1CN(C(C)c2cn3c(-c4ccc(F)cc4)ncc3c(=O)[nH]2)C1` (centres unmarked) [Compound 1, 3-(4-fluorophenyl)-6-[1-(3-methoxyazetidin-1-yl)ethyl]-7h-imidazo[1,5-a]pyrazin-8-one], the negative-log IC50 (pIC50) was 7.14.

Regarding `CC1CN(Cc2ccc(F)cc2)CC1c1cn2c(-c3ccc(OC(F)(F)F)cc3)ncc2c(=O)[nH]1` (centres unmarked) [Compound 119, 6-[1-[(4-fluorophenyl)methyl]-4-methyl-pyrrolidin-3-yl]-3-[4-(trifluoromethoxy)phenyl]-7h-imidazo[1,5-a]pyrazin-8-one], the pIC50 is 6.72.

As to `CN(C)c1ccc(C2CN(Cc3cn4c(-c5ccc(F)cc5)ncc4c(=O)[nH]3)C2)cc1` [Compound 51, 6-[[3-(4-dimethylaminophenyl)azetidin-1-yl]methyl]-3-(4-fluorophenyl)-7h-imidazo[1,5-a]pyrazin-8-one], the pIC50 was 8.15.

For the molecule `O=c1[nH]c(CN2CCC(c3cccc(C(F)(F)F)c3)C2)cn2c(C3CCOC3)ncc12` (centres unmarked) [Compound 125, 3-tetrahydrofuran-3-yl-6-[[3-[3-(trifluoromethyl)phenyl]pyrrolidin-1-yl]methyl]-7h-imidazo[1,5-a]pyrazin-8-one], the pIC50 was 7.32.

Take `O=c1[nH]c(CN2CC(c3ncccn3)C2)cn2c(C3CCOCC3)ncc12` [Compound 54, 6-[(3-pyrimidin-2-ylazetidin-1-yl)methyl]-3-tetrahydropyran-4-yl-7h-imidazo[1,5-a]pyrazin-8-one]: the pIC50 was 6.99.

As to `CC(c1cn2c(-c3ccccc3)ncc2c(=O)[nH]1)N1CC(Oc2ncccn2)C1` (centres unmarked) [Compound 7, 3-phenyl-6-[1-(3-pyrimidin-2-yloxyazetidin-1-yl)ethyl]-7h-imidazo[1,5-a]pyrazin-8-one], the negative logarithm of the IC50 (pIC50) is 7.85.

For `O=c1[nH]c(CN2CC(c3ccc(C(F)(F)F)cn3)C2)cn2c(-c3ccc(F)cc3)ncc12` [Compound 77, 3-(4-fluorophenyl)-6-[[3-[5-(trifluoromethyl)-2-pyridyl]azetidin-1-yl]methyl]-7h-imidazo[1,5-a]pyrazin-8-one], the pIC50 is 8.40.

As to `O=c1[nH]c(CN2CC(Oc3ccccc3)C2)cn2c(-c3ccc(F)cc3)ncc12` [Compound 73, 3-(4-fluorophenyl)-6-[(3-phenoxyazetidin-1-yl)methyl]-7h-imidazo[1,5-a]pyrazin-8-one], the pIC50 was 6.75.

Turning to `O=c1[nH]c(CN2CC(c3ccccc3)C2)cn2c(-c3ccccc3)ncc12` [Compound 8, 3-phenyl-6-[(3-phenylazetidin-1-yl)methyl]-7h-imidazo[1,5-a]pyrazin-8-one], the pIC50 was 7.11.

Turning to `CN(Cc1ccccc1)Cc1cn2c(-c3ccccc3)ncc2c(=O)[nH]1` [Compound 9, 6-[[benzyl(methyl)amino]methyl]-3-phenyl-7h-imidazo[1,5-a]pyrazin-8-one], the pIC50 was 6.81.

For `CC(c1cn2c(C3CCOCC3)ncc2c(=O)[nH]1)N1CC(c2ncccn2)C1` (centres unmarked) [Compound 91, 6-[1-(3-pyrimidin-2-ylazetidin-1-yl)ethyl]-3-tetrahydropyran-4-yl-7h-imidazo[1,5-a]pyrazin-8-one], the negative-log IC50 (pIC50) is 7.34.

For the molecule `COC(=O)C1CN(Cc2ccccc2)CC1c1cn2c(-c3ccccc3)ncc2c(=O)[nH]1` (centres unmarked) [Compound 10, methyl 1-benzyl-4-(8-oxo-3-phenyl-7h-imidazo[1,5-a]pyrazin-6-yl)pyrrolidine-3-carboxylate], the pIC50 was 7.37.

Regarding `COc1ccc(CN2CC(C)C(c3cn4c(C5CCOCC5)ncc4c(=O)[nH]3)C2)cn1` (centres unmarked) [Compound 101, 6-[1-[(6-methoxy-3-pyridyl)methyl]-4-methyl-pyrrolidin-3-yl]-3-tetrahydropyran-4-yl-7h-imidazo[1,5-a]pyrazin-8-one], the pIC50 is 7.74.
